According to the supplement of paper PMC10307832:

What was measured:
Experiment in all cases: relative viability (nuclei count vs DMSO), 5 days (fraction); higher = more cells survive
[1] = compound: Cc1ccc(NC(=O)c2ccc(CN3CCN(C)CC3)cc2)cc1Nc1nc(-c2cccnc2)cs1 [Masitinib] + Nc1ncn([C@H]2C[C@H](O)[C@@H](CO)O2)c(=O)n1 [Decitabine] (partner 2 µM)
Summary of the method: (§1)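 Five library-drug doses in √10 steps were combined with a fixed anchor-drug dose, or a single drug was given alone, by pin tool to lung cancer cell lines in 1536-well plates the day after seeding. Nuclei were stained and counted after 5 days. Relative viability is the nuclei count in treated wells over that in vehicle wells, taken as the median of duplicate plates.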

[2] = compound: CC1=CC(=CC=C1)NC2=NC(=CS2)C3=CC=NC=C3 + CS(=O)(=O)CCNCc1ccc(-c2ccc3ncnc(Nc4ccc(OCc5cccc(F)c5)c(Cl)c4)c3c2)o1 [Lapatinib] (partner 2 µM)
Summary of the method: as §1

[3] = compound: Cc1ccc(NC(=O)c2ccc(CN3CCN(C)CC3)cc2)cc1Nc1nc(-c2cccnc2)cs1 [Masitinib] + Cc1cc(Nc2cc(N3CCN(C)CC3)nc(Sc3ccc(NC(=O)C4CC4)cc3)n2)n[nH]1 [Tozasertib] (partner 0.1 µM)
Summary of the method: as §1

[4] = compound: CC1=CC(=CC=C1)NC2=NC(=CS2)C3=CC=NC=C3 + O=C(c1cc(Cc2n[nH]c(=O)c3ccccc23)ccc1F)N1CCN(C(=O)C2CC2)CC1 [Olaparib] (partner 8 µM)
Summary of the method: as §1

Row | Cell Line | relative viability ([1]; first compound 0.01 µM) | relative viability ([1]; first compound 0.03162 µM) | relative viability ([1]; first compound 0.1 µM) | relative viability ([1]; first compound 0.3162 µM) | relative viability ([1]; first compound 1 µM) | relative viability ([2]; first compound 0.08 µM) | relative viability ([2]; first compound 0.253 µM) | relative viability ([2]; first compound 0.8 µM) | relative viability ([2]; first compound 2.53 µM) | relative viability ([2]; first compound 8 µM) | relative viability ([3]; first compound 0.01 µM) | relative viability ([3]; first compound 0.03162 µM) | relative viability ([3]; first compound 0.1 µM) | relative viability ([3]; first compound 0.3162 µM) | relative viability ([3]; first compound 1 µM) | relative viability ([4]; first compound 0.08 µM) | relative viability ([4]; first compound 0.253 µM) | relative viability ([4]; first compound 0.8 µM) | relative viability ([4]; first compound 2.53 µM) | relative viability ([4]; first compound 8 µM)
1 | 201T | 0.762 | 0.861 | 0.848 | 0.921 | 0.881 | 0.982 | 0.956 | 0.97 | 0.767 | 0.752 | 0.711 | 1.01 | 0.85 | 0.789 | 0.926 | 0.853 | 0.845 | 0.788 | 0.826 | 0.757
2 | A549 | 0.249 | 0.251 | 0.219 | 0.433 | 0.278 | 0.863 | 0.893 | 0.898 | 0.891 | 0.809 | – | – | – | – | – | 0.264 | 0.37 | 0.353 | 0.261 | 0.449
3 | A-427 | 0.491 | 0.539 | 0.567 | 0.515 | 0.541 | 0.972 | 1.09 | 1.03 | – | 0.892 | – | 0.214 | – | 0.171 | 0.227 | 0.456 | 0.576 | 0.565 | 0.683 | 0.615
4 | ABC-1 | 1.02 | 1.14 | 1.24 | 1.06 | 0.865 | 1.24 | 1.14 | 1.03 | 1.02 | 1.01 | 0.223 | 0.163 | 0.168 | 0.226 | 0.18 | 0.48 | – | 0.735 | 0.525 | 0.574
5 | BEN | 0.727 | 0.739 | 0.753 | 0.699 | 0.728 | 0.733 | 0.62 | 0.498 | 0.669 | 0.741 | 0.481 | 0.506 | 0.561 | 0.483 | 0.481 | 0.928 | 1.15 | 1.1 | 0.975 | 1.09
6 | CAL-12T | – | – | – | – | – | 0.534 | – | 0.649 | 0.608 | 0.678 | 0.303 | 0.282 | 0.307 | 0.192 | 0.234 | 0.614 | 0.677 | 0.609 | 0.792 | 0.617
7 | COR-L23 | 0.388 | 0.412 | 0.463 | 0.329 | 0.359 | 0.709 | 0.878 | 0.651 | 1.07 | 0.881 | 0.207 | 0.164 | 0.168 | 0.124 | 0.15 | 0.308 | 0.283 | 0.245 | 0.322 | 0.285
8 | COR-L 105 | 0.617 | 0.658 | 0.619 | 0.61 | 0.639 | 0.289 | 0.41 | 0.382 | 0.408 | 0.389 | 0.377 | 0.353 | 0.361 | 0.333 | 0.317 | 0.575 | 0.499 | 0.477 | 0.541 | 0.457
9 | Calu-6 | – | – | – | – | – | 0.945 | 0.969 | 0.86 | 0.873 | 0.823 | – | – | – | – | – | 0.422 | 0.471 | 0.43 | 0.479 | 0.407
10 | ChaGo-K-1 | 0.553 | 0.526 | 0.536 | 0.526 | 0.534 | – | – | – | – | – | 0.205 | 0.202 | 0.21 | 0.192 | 0.21 | 0.407 | 0.389 | 0.424 | 0.418 | 0.351
11 | EBC-1 | – | – | – | – | – | 0.202 | 0.238 | 0.204 | 0.206 | 0.167 | – | – | – | – | – | 0.575 | 0.417 | 0.328 | 0.41 | 0.451
12 | EKVX | 0.342 | 0.31 | 0.35 | – | 0.541 | 0.182 | 0.189 | 0.206 | 0.163 | 0.171 | – | 0.409 | 0.405 | 0.443 | 0.333 | 0.617 | 0.72 | – | 0.525 | 0.371
13 | EMC-BAC-2 | 0.771 | – | 0.918 | 1.02 | 0.957 | 0.78 | 0.85 | 0.839 | 0.829 | 0.848 | 0.273 | 0.271 | 0.287 | 0.264 | 0.261 | 0.424 | – | 0.384 | 0.366 | 0.326
14 | EPLC-272H | 0.369 | 0.344 | 0.358 | 0.388 | 0.313 | 0.831 | – | 0.867 | – | 0.908 | 0.342 | 0.352 | 0.361 | 0.357 | 0.244 | 0.79 | 0.673 | 0.551 | 0.687 | 0.619
15 | H3255 | 0.488 | 0.67 | 0.439 | 0.626 | 0.534 | 0.225 | 0.325 | 0.203 | 0.195 | 0.211 | 0.437 | 0.712 | 0.502 | 0.687 | 0.608 | 0.542 | 0.569 | 0.562 | 0.533 | 0.475
16 | HARA | 0.474 | 0.4 | 0.634 | – | 0.508 | 0.483 | 0.641 | 0.509 | 0.474 | 0.527 | – | 0.352 | 0.126 | 0.0979 | 0.104 | 0.936 | 0.701 | 0.524 | 0.445 | 0.839
17 | HCC-15 | 0.58 | 0.546 | 0.659 | 0.582 | 0.638 | 0.809 | 0.841 | 0.848 | 0.845 | 0.739 | 0.491 | 0.426 | 0.433 | 0.387 | 0.243 | 0.713 | 0.696 | 0.717 | 0.677 | 0.694
18 | HCC-44 | 0.665 | 0.898 | 0.675 | 0.868 | 1.09 | 0.757 | 0.755 | 0.831 | 0.777 | 0.812 | 0.865 | 1.13 | 0.876 | 0.799 | 0.599 | 0.952 | 0.791 | 0.764 | 0.668 | 0.646
